Reference: patent US20090325902A1, “HETEROCYCLIC UREA DERIVATIVES AND METHODS OF USE THEREOF” (ASTRAZENECA AB, priority 2008, published 2009)
≈ marks a conversion by molar mass, not a printed value.

Key:
E. coli GyrB ATPase = E. coli GyrB ATPase (Escherichia coli, UniProt P0AES6); assay: E. coli GyrB ATPase inhibition (ammonium molybdate/malachite green phosphate detection); type: biochemical
Method: E. coli GyrB ATPase Inhibition Activity: Compounds can be tested for inhibition of E. coli GyrB ATPase activity using an ammonium molybdate/malachite green-based phosphate detection assay (Lanzetta, P. A., L. J. Alvarez, P. S. Reinach, and O. A. Candia, 1979, 100: 95-97). Assays can be performed in multiwell plates in 30 μl reactions containing: 50 mM Hepes buffer pH 7.5, 75 mM ammonium acetate, 8.0 mM magnesium chloride, 0.5 mM ethylenediaminetetraacetic acid, 5% glycerol, 1 mM 1,4-Dithio-DL-threitol, 200 nM bovine serum albumin, 1.6 μg/ml sheared salmon sperm DNA, 400 pM E. coli GyrA, 400 pM E. coli GyrB, 250 μM ATP, and compound in dimethylsulfoxide. Reactions can be quenched with 30 μl of ammonium molybdate/malachite green detection reagent containing 1.2 mM malachite green hydrochloride, 8.5 mM ammonium molybdate tetrahydrate, and 1 M hydrochloric acid. Plates can be read in an absorbance plate reader at 650 nm and percent inhibition values are calculated using dimethylsulfoxide (2%)-containing reactions as 0% inhibition and EDTA-containing (2.4 μM) reactions as 100% inhibition controls. An IC50 measurement of compound potency for each compound can be determined from reactions performed in the presence of 10 different compound concentrations.

[1] = target: E. coli Topoisomerase IV ATPase (Escherichia coli, UniProt P20083); assay: E. coli Topoisomerase IV ATPase inhibition; type: biochemical
Method: E. coli Topoisomerase IV ATPase Inhibition Activity: Compounds can be tested for inhibition of E. coli topoisomerase IV ATPase activity as described above for E. coli GyrB except the 30 μl reactions contained the following: 20 mM TRIS buffer pH 8, 50 mM ammonium acetate, 8 mM magnesium chloride, 5% glycerol, 5 mM 1,4-Dithio-DL-threitol, 0.005% Brij-35, 5 μg/ml sheared salmon sperm DNA, 500 pM E. coli ParC, 500 pM E. coli ParE, 160 μM ATP, and compound in dimethylsulfoxide. An IC50 measurement of compound potency for each compound can be determined from reactions performed in the presence of 10 different compound concentrations.

S. aureus GyrB ATPase = S. aureus GyrB ATPase (Staphylococcus aureus, UniProt P0A0K8); assay: S. aureus GyrB ATPase inhibition (ammonium molybdate/malachite green phosphate detection); type: biochemical; settings: compound concentration of 1 μM; read-out: percent inhibition of S. aureus GyrB ATPase
Method: S. aureus GyrB ATPase Inhibition Activity: Compounds may be tested for inhibition of S. aureus GyrB ATPase activity using an ammonium molybdate/malachite green-based phosphate detection assay (Lanzetta, P. A., L. J. Alvarez, P. S. Reinach, and O. A. Candia, 1979, 100: 95-97). Assays can be performed in multiwell plates in 30 μl reactions containing: 50 mM Hepes buffer pH 7.5, 75 mM ammonium acetate, 8.0 mM magnesium chloride, 0.5 mM ethylenediaminetetraacetic acid, 5% glycerol, 1.0 mM 1,4-Dithio-DL-threitol, 200 nM bovine serum albumin, 1.0 μg/ml sheared salmon sperm DNA, 250 pM E. coli GyrA, 250 pM S. aureus GyrB, 250 μM ATP, and compound in dimethylsulfoxide. Reactions can be quenched with 30 μl of ammonium molybdate/malachite green detection reagent containing 1.2 mM malachite green hydrochloride, 8.5 mM ammonium molybdate tetrahydrate, and 1 M hydrochloric acid. Plates can be read in an absorbance plate reader at 650 nm and percent inhibition values can be calculated using dimethylsulfoxide (2%)-containing reactions as 0% inhibition and EDTA-containing ([…]) reactions as 100% inhibition controls. An IC50 measurement of compound potency for each compound can be determined from reactions performed in the presence of 10 different compound concentrations.

Streptococcus pneumoniae = assay: Bacterial susceptibility testing in liquid media (MIC); type: cell-based; settings: lowest drug concentration able to reduce growth by 80% or more, read-out: MIC against Streptococcus pneumoniae
Description: Compounds may be tested for antimicrobial activity by susceptibility testing in liquid media. Compounds may be dissolved in dimethylsulfoxide and tested in 10 doubling dilutions in the susceptibility assays. The organisms used in the assay may be grown overnight on suitable agar media and then suspended in a liquid medium appropriate for the growth of the organism. The suspension can be a 0.5 McFarland and a further 1 in 10 dilution can be made into the same liquid medium to prepare the final organism suspension in 100 μL. Plates can be incubated under appropriate conditions at 37° C. for 24 hrs prior to reading. The Minimum Inhibitory Concentration (MIC) may be determined as the lowest drug concentration able to reduce growth by 80% or more.

Chain of S. aureus GyrB ATPase (P0AES4 whole entry): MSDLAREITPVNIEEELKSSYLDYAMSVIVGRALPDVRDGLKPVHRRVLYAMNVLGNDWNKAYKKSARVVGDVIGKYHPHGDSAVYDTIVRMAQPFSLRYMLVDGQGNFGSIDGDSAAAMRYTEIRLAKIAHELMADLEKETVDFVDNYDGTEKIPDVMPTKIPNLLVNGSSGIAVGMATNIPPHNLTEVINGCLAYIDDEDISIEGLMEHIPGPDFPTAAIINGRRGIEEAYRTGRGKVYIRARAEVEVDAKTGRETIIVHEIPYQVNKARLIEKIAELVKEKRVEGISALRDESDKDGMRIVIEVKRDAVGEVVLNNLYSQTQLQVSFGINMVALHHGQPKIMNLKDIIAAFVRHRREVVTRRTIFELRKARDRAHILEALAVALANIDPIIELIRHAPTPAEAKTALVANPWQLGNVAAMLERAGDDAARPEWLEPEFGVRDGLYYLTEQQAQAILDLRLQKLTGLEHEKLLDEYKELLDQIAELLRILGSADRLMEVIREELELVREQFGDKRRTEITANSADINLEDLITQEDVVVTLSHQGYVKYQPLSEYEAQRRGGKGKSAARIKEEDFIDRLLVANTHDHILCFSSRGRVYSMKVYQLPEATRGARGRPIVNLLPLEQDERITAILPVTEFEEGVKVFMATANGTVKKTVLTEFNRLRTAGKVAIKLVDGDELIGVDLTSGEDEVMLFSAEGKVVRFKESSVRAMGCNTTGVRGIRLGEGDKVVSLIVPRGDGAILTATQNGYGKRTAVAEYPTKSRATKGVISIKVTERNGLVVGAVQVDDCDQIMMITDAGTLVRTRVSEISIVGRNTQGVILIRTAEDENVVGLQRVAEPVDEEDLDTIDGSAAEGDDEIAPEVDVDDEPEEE
Chain of S. aureus GyrB ATPase (P0A0K8 whole entry): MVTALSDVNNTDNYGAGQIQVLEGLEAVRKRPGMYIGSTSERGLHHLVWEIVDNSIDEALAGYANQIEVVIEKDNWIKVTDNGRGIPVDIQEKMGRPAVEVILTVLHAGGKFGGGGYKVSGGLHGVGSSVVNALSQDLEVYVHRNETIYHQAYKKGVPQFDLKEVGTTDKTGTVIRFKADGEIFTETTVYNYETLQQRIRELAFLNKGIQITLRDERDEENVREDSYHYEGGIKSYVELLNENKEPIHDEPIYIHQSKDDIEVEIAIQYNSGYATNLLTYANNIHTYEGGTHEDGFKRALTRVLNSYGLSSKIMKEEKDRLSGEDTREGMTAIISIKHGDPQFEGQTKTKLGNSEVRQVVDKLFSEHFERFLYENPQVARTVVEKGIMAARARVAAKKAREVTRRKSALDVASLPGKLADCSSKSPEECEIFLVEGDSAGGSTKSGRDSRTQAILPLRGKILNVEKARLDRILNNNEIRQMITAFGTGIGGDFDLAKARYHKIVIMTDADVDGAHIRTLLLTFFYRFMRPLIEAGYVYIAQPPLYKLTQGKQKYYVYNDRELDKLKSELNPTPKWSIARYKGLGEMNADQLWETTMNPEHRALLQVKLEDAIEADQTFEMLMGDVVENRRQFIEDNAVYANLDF
Chain of E. coli Topoisomerase IV ATPase (P0AFI2 whole entry): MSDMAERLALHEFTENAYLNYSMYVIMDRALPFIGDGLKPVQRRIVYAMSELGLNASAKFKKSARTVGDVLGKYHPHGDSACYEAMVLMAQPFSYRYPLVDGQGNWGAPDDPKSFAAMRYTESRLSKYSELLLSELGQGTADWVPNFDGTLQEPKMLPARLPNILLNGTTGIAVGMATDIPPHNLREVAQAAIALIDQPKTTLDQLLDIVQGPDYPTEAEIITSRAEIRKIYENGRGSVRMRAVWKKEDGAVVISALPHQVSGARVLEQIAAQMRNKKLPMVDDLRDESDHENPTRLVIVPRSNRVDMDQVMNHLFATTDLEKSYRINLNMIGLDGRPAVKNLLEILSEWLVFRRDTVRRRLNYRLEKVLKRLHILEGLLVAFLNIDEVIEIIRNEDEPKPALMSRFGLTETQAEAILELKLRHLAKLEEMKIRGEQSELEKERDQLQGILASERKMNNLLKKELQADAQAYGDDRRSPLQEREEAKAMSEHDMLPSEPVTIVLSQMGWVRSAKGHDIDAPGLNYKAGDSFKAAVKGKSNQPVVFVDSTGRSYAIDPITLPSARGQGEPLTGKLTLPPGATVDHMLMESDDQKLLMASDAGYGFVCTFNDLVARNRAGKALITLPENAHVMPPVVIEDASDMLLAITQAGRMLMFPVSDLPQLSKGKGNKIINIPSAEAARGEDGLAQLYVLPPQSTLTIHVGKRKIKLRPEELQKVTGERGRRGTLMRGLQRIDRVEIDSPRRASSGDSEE
Chain of E. coli Topoisomerase IV ATPase (P20083 whole entry): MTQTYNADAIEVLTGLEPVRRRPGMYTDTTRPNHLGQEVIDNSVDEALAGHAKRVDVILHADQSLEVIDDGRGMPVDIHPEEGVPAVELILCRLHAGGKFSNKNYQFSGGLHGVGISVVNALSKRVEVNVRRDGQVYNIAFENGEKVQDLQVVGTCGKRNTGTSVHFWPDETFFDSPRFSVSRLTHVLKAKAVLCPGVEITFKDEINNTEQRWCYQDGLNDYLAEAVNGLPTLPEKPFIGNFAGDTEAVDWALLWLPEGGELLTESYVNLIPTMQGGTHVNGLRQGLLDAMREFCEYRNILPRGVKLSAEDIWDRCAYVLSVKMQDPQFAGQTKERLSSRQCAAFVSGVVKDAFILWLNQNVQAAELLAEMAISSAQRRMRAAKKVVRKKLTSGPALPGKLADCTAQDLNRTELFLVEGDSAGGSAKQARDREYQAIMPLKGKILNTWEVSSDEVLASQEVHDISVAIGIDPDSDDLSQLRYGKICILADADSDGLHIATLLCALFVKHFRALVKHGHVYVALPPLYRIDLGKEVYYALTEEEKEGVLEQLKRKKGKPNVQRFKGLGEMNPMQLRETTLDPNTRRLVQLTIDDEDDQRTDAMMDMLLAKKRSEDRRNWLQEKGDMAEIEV

Q: Which IC50 (E. coli GyrB ATPase) does the source give for `CCNC(=O)Nc1cc(C#Cc2ccccn2)c(-c2cncc(-c3n[nH]c(=O)o3)c2)cn1` [Example 1, 1-ethyl-3-(5′-(5-oxo-4,5-dihydro-1,3,4-oxadiazol-2-yl)-4-(pyridin-2-ylethynyl)-3,3′-bipyridin-6-yl)urea] here?
A: < 200 µM

Q: What about the IC50 [1] of the same compound?
A: < 200 µM

Q: What about the inhibition at 1 µM (S. aureus GyrB ATPase) of the same compound?
A: 102%

Q: What about the MIC (Streptococcus pneumoniae) of the same compound?
A: 0.2 µM (≈ 0.0855 µg/mL)
